Data: ChEMBL document CHEMBL1201862, “PubChem BioAssay data set” (2004)
The source made the active and inactive calls. Rule as the data show it, for most assays here: actives have a measured EC50 and inactives only a lower limit.

Columns and labels:
[1] = molecular target: T1, Rac GTPase-activating protein 1 (Homo sapiens, UniProt Q9H0H5); assay: blockers of MgcRacGAP-driven Rac1 GTP hydrolysis – biochemical, ADP Hunter fluorescence, primary and confirmatory, confirmation (AID 624330); assay type: functional
T1 sequence (Q9H0H5 whole entry): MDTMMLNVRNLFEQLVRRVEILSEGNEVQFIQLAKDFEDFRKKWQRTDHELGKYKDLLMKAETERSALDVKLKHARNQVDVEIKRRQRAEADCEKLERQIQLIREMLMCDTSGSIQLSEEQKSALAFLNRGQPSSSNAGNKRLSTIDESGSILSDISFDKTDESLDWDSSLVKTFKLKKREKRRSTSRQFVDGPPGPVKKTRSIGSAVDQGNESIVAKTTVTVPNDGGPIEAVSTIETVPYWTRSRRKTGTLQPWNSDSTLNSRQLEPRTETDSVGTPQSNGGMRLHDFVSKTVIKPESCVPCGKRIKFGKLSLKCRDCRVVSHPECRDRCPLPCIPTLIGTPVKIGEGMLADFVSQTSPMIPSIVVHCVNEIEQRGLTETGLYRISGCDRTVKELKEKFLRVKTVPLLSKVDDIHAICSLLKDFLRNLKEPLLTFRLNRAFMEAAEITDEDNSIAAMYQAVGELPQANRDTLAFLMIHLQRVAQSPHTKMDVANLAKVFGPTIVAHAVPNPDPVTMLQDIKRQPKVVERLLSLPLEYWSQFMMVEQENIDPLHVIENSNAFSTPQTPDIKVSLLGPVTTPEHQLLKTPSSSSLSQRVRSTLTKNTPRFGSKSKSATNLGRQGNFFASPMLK

cells [2] = assay type: functional, cell-based
[3] = molecular target: T2, Heat shock factor protein 1 (Mus musculus, UniProt P38532); assay: enhancement of HSF1-driven luciferase signal – cell-based, NIH3T3, luminescence, dose retest, confirmation (AID 435004); assay type: functional;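 also: stress induced by proteasome inhibitor MG132 added 30 min after compound; luciferase reporter driven by HSF1 response element in NIH3T3 cells; actives raise luminescence as potentiators of the MG132 stress response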
T2 sequence (P38532 whole entry): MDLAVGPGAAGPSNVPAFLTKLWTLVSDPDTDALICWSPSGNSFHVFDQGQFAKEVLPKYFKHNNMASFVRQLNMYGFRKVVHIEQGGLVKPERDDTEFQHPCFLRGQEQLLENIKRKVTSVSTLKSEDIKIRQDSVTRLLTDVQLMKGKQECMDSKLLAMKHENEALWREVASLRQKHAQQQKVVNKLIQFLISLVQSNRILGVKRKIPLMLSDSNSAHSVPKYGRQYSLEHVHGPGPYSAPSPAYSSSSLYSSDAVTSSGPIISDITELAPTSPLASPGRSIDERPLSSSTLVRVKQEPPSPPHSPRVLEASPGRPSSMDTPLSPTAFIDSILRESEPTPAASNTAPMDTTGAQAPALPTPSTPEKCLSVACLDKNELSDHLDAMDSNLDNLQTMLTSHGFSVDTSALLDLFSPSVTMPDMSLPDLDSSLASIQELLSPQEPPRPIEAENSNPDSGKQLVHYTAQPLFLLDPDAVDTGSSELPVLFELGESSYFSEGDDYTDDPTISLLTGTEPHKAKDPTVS

cells [4] = assay type: functional, cell-based; remark: listed apart in the source
Protein RecA = molecular target: T3, Protein RecA (Mycobacterium tuberculosis, UniProt P9WHJ3); assay: Fluorescence Cell-Free Homogeneous Dose Retest to Identify Inhibitors of RecA-Intein Splicing Activity. [Related pubchem assays (depositor defined):AID2097, AID2223, AID489010, AID492950]; assay type: functional
T3 sequence (P9WHJ3 whole entry): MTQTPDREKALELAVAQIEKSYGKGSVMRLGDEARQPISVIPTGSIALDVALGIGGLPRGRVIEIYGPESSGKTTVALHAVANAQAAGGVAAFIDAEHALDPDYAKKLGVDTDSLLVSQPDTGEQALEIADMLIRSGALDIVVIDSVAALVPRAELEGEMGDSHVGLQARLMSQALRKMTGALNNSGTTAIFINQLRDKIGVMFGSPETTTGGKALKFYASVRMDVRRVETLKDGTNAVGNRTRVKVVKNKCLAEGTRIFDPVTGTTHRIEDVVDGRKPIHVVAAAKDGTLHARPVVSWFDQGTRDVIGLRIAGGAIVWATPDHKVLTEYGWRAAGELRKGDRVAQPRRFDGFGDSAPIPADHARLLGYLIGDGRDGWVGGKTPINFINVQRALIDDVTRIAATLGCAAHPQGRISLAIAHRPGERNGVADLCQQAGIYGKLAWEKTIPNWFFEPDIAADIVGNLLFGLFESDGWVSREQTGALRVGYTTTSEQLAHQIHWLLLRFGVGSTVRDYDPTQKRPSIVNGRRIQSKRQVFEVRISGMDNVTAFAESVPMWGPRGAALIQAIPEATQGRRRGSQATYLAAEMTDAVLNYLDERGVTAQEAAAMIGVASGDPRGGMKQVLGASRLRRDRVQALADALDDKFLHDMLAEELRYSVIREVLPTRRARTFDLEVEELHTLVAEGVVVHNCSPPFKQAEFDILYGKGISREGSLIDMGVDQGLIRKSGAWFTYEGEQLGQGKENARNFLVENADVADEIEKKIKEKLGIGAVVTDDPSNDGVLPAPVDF

[5] = molecular target: T4, Replicative DNA helicase DnaB (Mycobacterium tuberculosis, UniProt P9WMR3); assay: DnaB intein splicing inhibitors, dose response, biochemical, cell-free fluorescence (AID 449749); assay type: functional
T4 sequence (P9WMR3 whole entry): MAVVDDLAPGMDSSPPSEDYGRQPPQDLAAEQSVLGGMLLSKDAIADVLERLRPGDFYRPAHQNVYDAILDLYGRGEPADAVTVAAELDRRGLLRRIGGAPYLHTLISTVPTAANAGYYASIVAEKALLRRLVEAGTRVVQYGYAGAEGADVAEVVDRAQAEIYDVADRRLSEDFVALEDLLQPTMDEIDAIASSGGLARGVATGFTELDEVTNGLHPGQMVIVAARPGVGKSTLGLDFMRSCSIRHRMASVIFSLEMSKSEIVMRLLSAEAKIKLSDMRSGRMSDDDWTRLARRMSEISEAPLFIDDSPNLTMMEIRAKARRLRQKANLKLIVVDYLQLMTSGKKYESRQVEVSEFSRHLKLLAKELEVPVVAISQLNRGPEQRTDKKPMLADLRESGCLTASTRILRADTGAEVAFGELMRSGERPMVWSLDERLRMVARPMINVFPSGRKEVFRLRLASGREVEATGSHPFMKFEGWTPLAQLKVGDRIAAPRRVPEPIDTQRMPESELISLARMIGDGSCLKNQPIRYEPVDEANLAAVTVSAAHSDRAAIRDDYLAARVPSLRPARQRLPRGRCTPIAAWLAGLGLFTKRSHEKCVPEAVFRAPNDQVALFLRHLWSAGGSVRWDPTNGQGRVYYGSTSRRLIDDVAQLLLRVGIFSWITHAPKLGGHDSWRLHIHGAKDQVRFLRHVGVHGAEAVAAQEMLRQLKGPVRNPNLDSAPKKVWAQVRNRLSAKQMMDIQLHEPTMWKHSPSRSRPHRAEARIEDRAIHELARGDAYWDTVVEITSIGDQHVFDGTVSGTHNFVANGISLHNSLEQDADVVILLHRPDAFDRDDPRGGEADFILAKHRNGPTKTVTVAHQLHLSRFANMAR

INS1 = assay: INS-1E survival protection against cytokine death – cell-based, luminescence, retest, dose response (AID 449756); assay type: functional; settings: Rattus norvegicus;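 also: cell death triggered by IL-1 beta plus TNF-alpha plus IFN-gamma mixture; protective hits raise ATP signal compared with cytokine alone wells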
[6] = Luminescence Cell-Based Dose Confirmation HTS to Identify Activators of 5'UTR Stem-Loop Driven Alpha-Synuclein mRNA Translation in H4 Neuroglioblastoma Cells. [Related pubchem assays: 1829 (Project Summary), 1814 (Primary HTS)]; assay type: functional
[7] = Trypanosoma cruzi growth suppression in host cells – NIH3T3 host cells, beta-gal luminescence, confirmation (AID 2044); assay type: functional, cell-based;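 also: intracellular parasites grown in NIH/3T3 mouse fibroblasts as host cells; luminescent beta-galactosidase reporter signal from transgenic T. cruzi replicating inside host cells; inhibitors lower the luminescence signal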
[8] = NIH3T3 cell viability loss – ATP luminescence, mouse fibroblasts, counter-screen, dose response (AID 2010); assay type: functional, cell-based;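 also: cells exposed to compound for about 90 hours before reading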
H4 = assay: Luminescence Cell-Based Dose Response HTS to Identify Activators of 5'UTR Stem-Loop Driven Prion Protein mRNA Translation in H4 Neuroglioblastoma Cells. [Related pubchem assays: 1829 (Project Summary), 1814 (Primary HTS)]; assay type: functional; settings: Homo sapiens
[9] = Luminescence Cell-Based Dose Response HTS to Identify Activators of Luciferase Translation or Activity in H4 […] Cells. [Related pubchem assays: 1829 (Project Summary), 1814 (Primary HTS)]; assay type: functional

With Cc1cccc(Nc2c(-c3ccc(O)cc3)nc3ncccn23)c1 the IC50 [1] was 32.1 µM (active).
In the case of Oc1ccc(-c2cn3c(n2)SCC3)cc1, the IC50 [1] is reported as 18.9 µM (active).
For Cc1ccc(OCCCCNC(C)(C)C)c([N+](=O)[O-])c1, the IC50 [1] was 141 µM (active).
For O=C(Cn1nc(-c2ccccc2Cl)ccc1=O)Nc1ccccc1-c1ccccc1, the EC50 (cells [2]) was > 350 µM (not active), the EC50 [3] was 120 µM (active) and the EC50 (cells [4]) was > 350 µM (not active).
With Cc1ccc(OC(C)C(=O)N2CC(=O)Nc3ccccc32)cc1 (centres undefined) the EC50 (cells [2]) was > 350 µM (not active) and the EC50 (cells [4]) was > 350 µM (not active).
For COC(=O)COc1c(Cl)cc(C(c2c(C)n[nH]c2O)c2c(C)n[nH]c2O)cc1OC, the EC50 (Protein RecA) was 0.158 µM (active) and the AC50 [5] was 0.47 µM (active).
For CCCCCn1c(=O)c(C(=O)NCc2ccccc2Cl)c(O)c2ccccc21, the AC50 (INS1) was 8.04 µM (active).
For Cc1[nH]nc(O)c1C(c1ccc(Cl)cc1)c1c(O)n[nH]c1C, the EC50 (Protein RecA) was 0.461 µM (active) and the AC50 [5] was 1.27 µM (active).
In the case of CCc1ccc2nc(O)c(CN(Cc3ccccc3OC)C(=O)Nc3ccccc3OC)cc2c1, the EC50 [6] is reported as 111 µM (active), the EC50 [7] is reported as 3 µM (active) and the EC50 [8] is reported as > 60 µM (not active). For the same compound, the EC50 (H4) was 111 µM (active) and the EC50 [9] was > 120 µM (not active).
In the case of O=[N+]([O-])c1cccc(/C=N/n2cnnc2)c1, the AC50 (INS1) is reported as > 260 µM (inactive).
In the case of COc1ccc(NC2CCCN(C(=O)c3ccc4[nH]c(C)c(C)c4c3)C2)cc1 (centres undefined), the IC50 [1] is reported as 81.4 µM (active).
In the case of COc1cc(NC(=O)CN2C(=O)c3ccccc3Sc3ccc(C(=O)N4CCOCC4)cc32)cc(OC)c1OC, the EC50 (cells [2]) is reported as > 350 µM (not active) and the EC50 (cells [4]) is reported as > 350 µM (not active).
In the case of COc1cc(C2C(C#N)=C(N)Oc3[nH]nc(-c4cccnc4)c32)ccc1OCC(N)=O (centres undefined), the EC50 (Protein RecA) is reported as 3.16 µM (active) and the AC50 [5] is reported as 48.5 µM (active).
With CCSc1cc(C)nc2c(-c3ccccc3)cnn12 the EC50 (cells [2]) was 23.1 µM (active) and the EC50 (cells [4]) was > 350 µM (not active).
With Cc1nnc2ccc(Oc3ccc(-c4ccccc4)cc3)nn12 the AC50 (INS1) was 6.58 µM (active) and the IC50 [1] was 99.4 µM (active).
For CCCS(=O)(=O)N1CCN(Cc2ccco2)CC1, the IC50 [1] was 130 µM (active).
In the case of CCN1CCN(C(S)=NCC2CCCO2)CC1 (centres undefined), the IC50 [1] is reported as 186 µM (active).
In the case of C(/CCc1ccccc1)=N\Nc1nc2ccccc2[nH]1, the AC50 (INS1) is reported as 5.2 µM (active), the EC50 (cells [2]) is reported as 35.8 µM (active) and the EC50 (cells [4]) is reported as 92.2 µM (active).
In the case of CCOC(=O)/C(C#N)=C1/C=CN(c2ccc(C)cc2)C=N1, the EC50 [6] is reported as > 120 µM (not active), the EC50 (H4) is reported as 14.8 µM (active) and the EC50 [9] is reported as 14.9 µM (active).
With O=C(c1c[nH]c(C(=O)C(Cl)(Cl)Cl)c1)c1ccc(F)cc1F the EC50 (Protein RecA) was 7.8 µM (active) and the AC50 [5] was 21.2 µM (active).
For COc1cc2c(cc1OC)CN(c1ccc3ccccc3n1)CC2, the EC50 [6] was 17 µM (active), the EC50 (H4) was 15.9 µM (active) and the EC50 [9] was 11.9 µM (active).
In the case of Cc1ccc(S(=O)(=O)Nc2cc(-c3ccc(Cl)cc3)nn2C)cc1, the EC50 (cells [2]) is reported as > 350 µM (not active) and the EC50 (cells [4]) is reported as > 350 µM (not active).
With Cc1ccc(-n2cc(CN3CCC(CO)(Cc4ccccc4)CC3)cn2)cc1 the EC50 (cells [2]) was > 350 µM (not active) and the EC50 (cells [4]) was > 350 µM (not active).
In the case of Cc1cc(C)c2c(N)c(C(=O)Nc3cccc(C)c3C)sc2n1, the EC50 [6] is reported as > 120 µM (not active), the EC50 (H4) is reported as > 120 µM (not active) and the EC50 [9] is reported as 3.92 µM (active).
For Cc1cccc(-n2ccnc2SCC(=O)Nc2nccs2)c1, the EC50 [6] was 6.34 µM (active), the EC50 (H4) was > 120 µM (not active) and the EC50 [9] was 23.4 µM (active).
For O=c1c2cc(-c3ccccc3)sc2ncn1-n1cccc1, the EC50 [6] was 0.473 µM (active), the EC50 (H4) was 15 µM (active) and the EC50 [9] was 0.674 µM (active).
For Cc1ccc(COC(=O)Cc2coc3cc(O)ccc23)cc1, the IC50 [1] was 30.1 µM (active).
For Cc1occc1C(=O)N/N=C/c1c(O)ccc2ccccc12, the AC50 (INS1) was 1.25 µM (active), the EC50 (cells [2]) was 9.8 µM (active) and the EC50 (cells [4]) was 69 µM (active).
In the case of O=C(CSc1nnnn1C1CC1)N1CCN(c2ccc(O)cc2)CC1, the IC50 [1] is reported as 30.8 µM (active).
